# Publication PMC5742070 (Xenobiotica; the fate of foreign compounds in biological …, 2020)
# What was measured:
# Caco-2 cells = details: ref Gertz et al., 2013; cited from earlier work
# [1] = substrate related parameter; ref Kotegawa et al., 2002, Matsuda et al., 2012; cited from earlier work
# CYP3A [2] = details: substrate related parameter; ref Kirby et al., 2011; cited from earlier work
# CYP3A [3] = assay: MDZ kinetics used for initial estimates; type: biochemical, rat
smiles,measurement,setting,value
"CC[C@H]1OC(=O)[C@H](C)[C@@H](O[C@H]2C[C@@](C)(OC)[C@@H](O)[C@H](C)O2)[C@H](C)[C@@H](O[C@@H]2O[C@H](C)C[C@H](N(C)C)[C@H]2O)[C@](C)(O)C[C@@H](C)C(=O)[C@H](C)[C@@H](O)[C@]1(C)O [ERY, erythromycin]",Papp,Caco-2 cells,0.44 ×10⁻⁶ cm/s
"Cc1ncc2n1-c1ccc(Cl)cc1C(c1ccccc1F)=NC2 [MDZ, midazolam]",Fg (fraction escaping gut),[1],0.75
same,fm (fraction metabolized by CYP3A),CYP3A [2],0.93
same,Papp,Caco-2 cells,32.4 ×10⁻⁶ cm/s
same,kcat (k3),CYP3A [3]; initial estimate from experimental samples without inhibitor,approx. 10 min^−1
same,Km,"CYP3A [3]; rat, liver microsomes",10 µM
